The NIST ThermoML archive (doi:10.1021/je060271a)
Values joined by “and” are separate entries in the source; they are usually repeats but may differ in a detail not shown here. Equal values may be shown once.

Conditions: 283.16 K, Liquid, Vibrating tube method

CCCCCC(=O)OCC(COC(=O)CCCCC)(COC(=O)CCCCC)COC(=O)CCCCC [pentaerythritol tetrahexanoate]
Conditions	mass density
94 kPa	1004.3 kg/m3
94.1 kPa	1004.2 kg/m3 and 1004.1 kg/m3
94.2 kPa	1004.2 kg/m3
94.3 kPa	1004.2 kg/m3
94.5 kPa	1004.2 kg/m3 and 1004.1 kg/m3
94.7 kPa	1004.1 kg/m3
94.8 kPa	1004.2 kg/m3
95 kPa	1004.1 kg/m3 and 1004.2 kg/m3
95.2 kPa	1004.1 kg/m3 and 1004.3 kg/m3
95.4 kPa	1004.2 kg/m3 and 1004.1 kg/m3
95.5 kPa	1004.2 kg/m3 and 1004.1 kg/m3
95.9 kPa	1004.2 kg/m3
96.1 kPa	1004.2 kg/m3
96.9 kPa	1004.1 kg/m3
97.1 kPa	1004.3 kg/m3
97.4 kPa	1004.3 kg/m3
97.8 kPa	1004.1 kg/m3
98.1 kPa	1004.2 kg/m3
98.3 kPa	1004.4 kg/m3
98.5 kPa	1004.1 kg/m3
98.6 kPa	1004.2 kg/m3
99 kPa	1004.2 kg/m3
99.3 kPa	1004.2 kg/m3
99.5 kPa	1004.2 kg/m3
99.7 kPa	1004.2 kg/m3 and 1004.1 kg/m3
100 kPa	1004.1 kg/m3 and 1004.2 kg/m3
100.2 kPa	1004.2 kg/m3 and 1004.3 kg/m3
100.4 kPa	1004.2 kg/m3
100.5 kPa	1004.2 kg/m3
100.7 kPa	1004.1 kg/m3
101 kPa	1004.2 kg/m3 and 1004.1 kg/m3
101.1 kPa	1004.2 kg/m3
101.2 kPa	1004.3 kg/m3 and 1004.1 kg/m3
101.4 kPa	1004.3 kg/m3 and 1004.1 kg/m3
101.7 kPa	1004.2 kg/m3
102.2 kPa	1004.1 kg/m3
102.4 kPa	1004.2 kg/m3
102.6 kPa	1004.2 kg/m3 and 1004.1 kg/m3
102.8 kPa	1004.3 kg/m3
103.1 kPa	1004.1 kg/m3 and 1004.2 kg/m3
103.3 kPa	1004.2 kg/m3
103.4 kPa	1004.1 kg/m3
103.6 kPa	1004.1 kg/m3
104 kPa	1004.1 kg/m3 and 1004.3 kg/m3
104.1 kPa	1004.1 kg/m3
104.3 kPa	1004.2 kg/m3
104.5 kPa	1004.1 kg/m3 and 1004.2 kg/m3
105 kPa	1004.2 kg/m3
105.2 kPa	1004.1 kg/m3
105.3 kPa	1004.2 kg/m3
105.5 kPa	1004.1 kg/m3
105.8 kPa	1004.2 kg/m3 and 1004.3 kg/m3
106 kPa	1004.1 kg/m3
106.2 kPa	1004.2 kg/m3
106.3 kPa	1004.2 kg/m3
106.4 kPa	1004.1 kg/m3
106.5 kPa	1004.2 kg/m3
106.7 kPa	1004.3 kg/m3
106.9 kPa	1004.2 kg/m3
107 kPa	1004.2 kg/m3 and 1004.1 kg/m3
107.2 kPa	1004.1 kg/m3
107.9 kPa	1004.2 kg/m3 and 1004.3 kg/m3
108.2 kPa	1004.2 kg/m3
108.6 kPa	1004.2 kg/m3
108.7 kPa	1004.1 kg/m3 and 1004.2 kg/m3
108.9 kPa	1004.2 kg/m3
109.4 kPa	1004.2 kg/m3
109.6 kPa	1004.2 kg/m3
109.8 kPa	1004.1 kg/m3
109.9 kPa	1004.2 kg/m3
110.1 kPa	1004.2 kg/m3
110.3 kPa	1004.2 kg/m3
110.5 kPa	1004.1 kg/m3
110.6 kPa	1004.4 kg/m3 and 1004.2 kg/m3
110.8 kPa	1004.2 kg/m3
111 kPa	1004.1 kg/m3
111.1 kPa	1004.2 kg/m3
111.3 kPa	1004.2 kg/m3
119.9 kPa	1004.1 kg/m3
120.5 kPa	1004.2 kg/m3
120.6 kPa	1004.1 kg/m3
120.8 kPa	1004.2 kg/m3
121 kPa	1004.2 kg/m3 and 1004.1 kg/m3
121.1 kPa	1004.3 kg/m3
126.7 kPa	1004.3 kg/m3
126.9 kPa	1004.4 kg/m3 and 1004.2 kg/m3
127 kPa	1004.2 kg/m3
127.4 kPa	1004.3 kg/m3
127.5 kPa	1004.1 kg/m3
127.7 kPa	1004.1 kg/m3
128.4 kPa	1004.2 kg/m3
128.6 kPa	1004.3 kg/m3
128.8 kPa	1004.2 kg/m3
129.1 kPa	1004.2 kg/m3
129.8 kPa	1004.2 kg/m3 and 1004.1 kg/m3 and 1004.3 kg/m3
130.3 kPa	1004.2 kg/m3
130.8 kPa	1004.2 kg/m3 and 1004.1 kg/m3
131.2 kPa	1004.3 kg/m3
131.5 kPa	1004.2 kg/m3
131.9 kPa	1004.2 kg/m3
132 kPa	1004.3 kg/m3
132.2 kPa	1004.3 kg/m3
132.4 kPa	1004.1 kg/m3
132.6 kPa	1004.2 kg/m3
132.7 kPa	1004 kg/m3
133.1 kPa	1004.2 kg/m3
133.4 kPa	1004.2 kg/m3
133.8 kPa	1004.2 kg/m3
145.2 kPa	1004.2 kg/m3
145.6 kPa	1004.2 kg/m3
146.1 kPa	1004.2 kg/m3
147 kPa	1004.2 kg/m3
148.7 kPa	1004.2 kg/m3
149.2 kPa	1004.2 kg/m3
149.4 kPa	1004.2 kg/m3
149.8 kPa	1004.4 kg/m3
150.1 kPa	1004.3 kg/m3 and 1004.2 kg/m3
158.8 kPa	1004.2 kg/m3
159 kPa	1004.1 kg/m3
159.1 kPa	1004.2 kg/m3
159.7 kPa	1004.3 kg/m3
159.8 kPa	1004.2 kg/m3
160.2 kPa	1004.3 kg/m3
168.7 kPa	1004.2 kg/m3
168.9 kPa	1004.2 kg/m3
169.4 kPa	1004.2 kg/m3
170.2 kPa	1004.2 kg/m3
170.6 kPa	1004.2 kg/m3
171.1 kPa	1004 kg/m3
171.5 kPa	1004.2 kg/m3
171.8 kPa	1004.1 kg/m3
172.3 kPa	1004.3 kg/m3
172.5 kPa	1004.3 kg/m3
175.8 kPa	1004.2 kg/m3
176.7 kPa	1004.2 kg/m3
177 kPa	1004.3 kg/m3
177.7 kPa	1004.2 kg/m3
216.6 kPa	1004.2 kg/m3
218.2 kPa	1004.4 kg/m3
218.5 kPa	1004.3 kg/m3
224.6 kPa	1004.3 kg/m3
224.9 kPa	1004.3 kg/m3
225.8 kPa	1004.2 kg/m3
226.1 kPa	1004.3 kg/m3
226.8 kPa	1004.3 kg/m3
